Assay results from patent US8748624B2, “Picolinamido-propanoic acid derivatives useful as glucagon receptor antagonists” (Janssen Pharmaceutica NV, priority 2011, dated 2014).

Key:
human GCGR = human GCGR (Homo sapiens (Human), UniProt P47871); experiment: Cellular functional assay, cAMP readout (glucagon-stimulated cAMP in HEK293 cells expressing human GCGR); assay type: cell-based; details: hGluc-1 HEK cells, LANCE TR-FRET, IC50 converted to Ki, average if tested more than once
Protocol: IC50 Values in Cellular Functional Assays: cAMP Readout
Full-length human GCGR (Accession Number: NM000160) subcloned into pcDNA3.1 was stably transfected into HEK293 cells (hGluc-1 HEK) and maintained under G418 selection (500 μg/mL). Cell cultures were maintained in DMEM/F12 media supplemented with 10% FBS and 1% GlutaMax. Glucagon stimulated cAMP was quantified using LANCE technology as per manufacturer instructions. On the day of the experiment, spent media was removed and cells were washed with Hank's Buffered Saline solution (HBSS) and cells were harvested with non-enzymatic cell dissociation solution, then washed once with HBSS. Cells were re-suspended in stimulation buffer at a concentration of 0.83×10^6 cells/ml and cAMP detection antibody was added. 6 μl/well of this solution was then dispensed in a 384 well plate (cell density 5000 cells/well). Test compound was serially diluted in DMSO and 50 nl were dispensed on top of the cell solution and allowed to incubate for 30 minutes. 6 μl of a 2× glucagon solution (final concentration in assay […]) was then added and the reaction was terminated after 5 minutes with the addition of detection mix. The mixture was incubated, protected from light for 1.5 h. cAMP levels were quantified by TR-FRET in an EnVision instrument against a known standard. IC50's were generated by using a non-linear regression macro driven in Excel and converted to K, values.

[1] = target: human glucagon receptor (GCGR) (Homo sapiens (Human), UniProt P47871); experiment: Inhibition of 125I-glucagon binding to membranes from HEK293 cells expressing the human glucagon receptor; details: membranes of hGluc-1 HEK cells, 125I-glucagon 0.3 nM, 2 hours room temperature; IC50 converted to Ki; average if tested more than once
Chain of human glucagon receptor (GCGR) (P47871 26-477): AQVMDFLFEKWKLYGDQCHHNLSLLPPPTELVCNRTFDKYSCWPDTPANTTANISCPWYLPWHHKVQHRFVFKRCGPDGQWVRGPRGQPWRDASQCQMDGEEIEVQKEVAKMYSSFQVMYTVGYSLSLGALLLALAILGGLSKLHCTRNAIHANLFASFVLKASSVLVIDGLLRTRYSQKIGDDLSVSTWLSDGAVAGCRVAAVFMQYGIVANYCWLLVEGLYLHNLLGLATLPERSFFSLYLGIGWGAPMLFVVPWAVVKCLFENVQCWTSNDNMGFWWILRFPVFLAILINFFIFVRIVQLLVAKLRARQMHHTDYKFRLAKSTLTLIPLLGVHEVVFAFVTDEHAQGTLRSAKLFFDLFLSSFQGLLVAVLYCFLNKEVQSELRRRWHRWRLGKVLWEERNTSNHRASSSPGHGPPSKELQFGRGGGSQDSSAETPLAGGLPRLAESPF
Protocol: Inhibition ^125I-Glucagon Binding to Membranes from HEK293 Cells Expressing the Human Glucagon Receptor (GCGR)
Full-length human GCGR (Accession Number: NM000160) subcloned into pcDNA3.1 was stably transfected into HEK293 cells (hGluc-1 HEK) and maintained under G418 selection (500 μg/mL). Cell cultures were maintained in DMEM/F12 media supplemented with 10% FBS and 1% GlutaMax. Membranes were prepared from these cells as follows: cells were harvested from T225 flasks and re-suspended in hypotonic lysis buffer, 50 mM HEPES pH 7.4 supplemented with Complete Protease inhibitors (Boehringer Mannheim, Indianapolis, Ind.). Cells were dounced 20 times on ice and spun at 700×g to remove nuclei and unlysed cells. The resulting pellet was re-suspended in hypotonic lysis buffer and the above step was repeated. Supernatants from the low speed centrifugation were combined and subsequently spun at 100K×g for 1 hr at 4° C. and the resulting pellet was re-suspended in buffer containing 50 mM HEPES pH 7.4 and 10% sucrose and the protein concentration was adjusted at 1 mg/mL as determined in the BCA assay. Membranes were aliquoted and stored at −80° C. The binding assay was performed by a filtration method in a 384 well format. Membranes at a final protein concentration of 6 μg/well were incubated with ^125I-glucagon at 0.3 nM and in the presence of compound for 2 hours at room temperature in a total reaction volume of 40 μL per well. Assay buffer consisted of 50 mM HEPES, pH 7.4, 5 mM MgCl2, 1 mM CaCl2 and 0.2% BSA. 30 μL of the reaction was then transferred to PEI treated filter plates and followed by filter aspiration. Plates were then washed 5× and allowed to dry at room temperature overnight. The next day the bottom of the plate was covered with seal tape and scintillant was added. Total counts retained by the filters were quantified with a Top Count instrument. IC50's were generated by using a non-linear regression macro driven in Excel and converted to K's.

Chain of human GCGR (P47871 26-477): as above

SMILES | Ki (human GCGR) [nM] | Ki [1] [nM]
O=C(O)CCNC(=O)c1ccc(-c2ccccc2CNc2ccc(-c3ccccc3)cc2)cn1 [Compound 1, 3-(5-(2-(([1,1′-biphenyl]-4-ylamino)methyl)phenyl)picolinamido)propanoic acid] | > 10400 | > 5400
O=C(O)CCNC(=O)c1ccc(-c2ccc(Cl)cc2CNc2ccc(-c3ccc(Cl)cc3)cc2)cn1 [Compound 4, 3-(5-(4-chloro-2-(((4′-chloro-[1,1′-biphenyl]-4-yl)amino)methyl)phenyl)picolinamido)propanoic acid] | 210 | 64.9
O=C(O)CCNC(=O)c1ccc(-c2ccccc2CNc2ccc(-c3ccc(Cl)c(Cl)c3)cc2)cn1 [Compound 8, 3-(5-(2-(((3′,4′-dichloro-[1,1′-biphenyl]-4-yl)amino)methyl)phenyl)picolinamido)propanoic acid] | 565 | 94.3
COc1cc(C(F)(F)F)cc(-c2ccc(C(=O)NCCC(=O)O)nc2)c1CNc1ccc(-c2ccc(C(F)(F)F)cc2)c(Cl)c1 [Compound 159, 3-(5-(2-(((2-chloro-4′-(trifluoromethyl)-[1,1′-biphenyl]-4-yl)amino)methyl)-3-methoxy-5-(trifluoromethyl)phenyl)picolinamido)propanoic acid] | 45.8 | –
COc1cc(C(F)(F)F)cc(-c2ccc(C(=O)NCCC(=O)O)nc2)c1CNc1cc(Cl)c(-c2ccc(Cl)cc2)c(Cl)c1 [Compound 160, 3-(5-(3-methoxy-2-(((2,4′,6-trichloro-[1,1′-biphenyl]-4-yl)amino)methyl)-5-(trifluoromethyl)phenyl)picolinamido)propanoic acid] | 650 | –
COc1cc(C(F)(F)F)cc(-c2ccc(C(=O)NCCC(=O)O)nc2)c1CNc1ccc(-c2ccc(C(F)(F)F)cc2Cl)cc1 [Compound 161, 3-(5-(2-(((2′-chloro-4′-(trifluoromethyl)-[1,1′-biphenyl]-4-yl)amino)methyl)-3-methoxy-5-(trifluoromethyl)phenyl)picolinamido)propanoic acid] | 38.7 | –
COc1cc(C(F)(F)F)cc(-c2ccc(C(=O)NCCC(=O)O)nc2)c1CNc1ccc(-c2ccc(Cl)cc2)c(Cl)c1 [Compound 162, 3-(5-(2-(((2,4′-dichloro-[1,1′-biphenyl]-4-yl)amino)methyl)-3-methoxy-5-(trifluoromethyl)phenyl)picolinamido)propanoic acid] | 46.9 | –
Cc1cc(C(F)(F)F)cc(-c2ccc(C(=O)NCCC(=O)O)nc2)c1CNc1ccc(-c2ccc(C(F)(F)F)cc2)c(Cl)c1 [Compound 163] | 14.4 | –
Cc1cc(Cl)ccc1-c1ccc(NCc2c(C)cc(C(F)(F)F)cc2-c2ccc(C(=O)NCCC(=O)O)nc2)cc1Cl [Compound 165, 3-(5-(2-(((2,4′-dichloro-2′-methyl-[1,1′-biphenyl]-4-yl)amino)methyl)-3-methyl-5-(trifluoromethyl)phenyl)picolinamido)propanoic acid] | 6.4 | –
Cc1cc(C(F)(F)F)ccc1-c1ccc(NCc2c(C)cc(C(F)(F)F)cc2-c2ccc(C(=O)NCCC(=O)O)nc2)cc1Cl [Compound 166, 3-(5-(2-(((2-chloro-2′-methyl-4′-(trifluoromethyl)-[1,1′-biphenyl]-4-yl)amino)methyl)-3-methyl-5-(trifluoromethyl)phenyl)picolinamido)propanoic acid] | 8.2 | –
Cc1cc(C(F)(F)F)ccc1-c1ccc(NCc2c(-c3ccc(C(=O)NCCC(=O)O)nc3)cc(C(F)(F)F)cc2C(C)C)cc1Cl [Compound 167] | 10.8 | –
Cc1cc(C(F)(F)F)ccc1-c1ccc(NCc2c(-c3ccc(C(=O)NCCC(=O)O)nc3)cc(C(F)(F)F)cc2C2CC2)cc1Cl [Compound 177, 3-(5-(2-(((2-chloro-2′-methyl-4′-(trifluoromethyl)-[1,1′-biphenyl]-4-yl)amino)methyl)-3-cyclopropyl-5-(trifluoromethyl)phenyl)picolinamido)propanoic acid] | 5.3 | –
Cc1cc(Cl)ccc1-c1ccc(NCc2c(-c3ccc(C(=O)NCCC(=O)O)nc3)cc(C(F)(F)F)cc2C2CC2)cc1Cl [Compound 178, 3-(5-(3-cyclopropyl-2-(((2,4′-dichloro-2′-methyl-[1,1′-biphenyl]-4-yl)amino)methyl)-5-(trifluoromethyl)phenyl)picolinamido)propanoic acid] | 6.3 | –
Cc1cc(C(F)(F)F)ccc1-c1ccc(NCc2c(-c3ccccc3)cc(C(F)(F)F)cc2-c2ccc(C(=O)NCCC(=O)O)nc2)cc1Cl [Compound 179, 3-(5-(2-(((2-chloro-2′-methyl-4′-(trifluoromethyl)-[1,1′-biphenyl]-4-yl)amino)methyl)-5-(trifluoromethyl)-[1,1′-biphenyl]-3-yl)picolinamido)propanoic acid] | 19.6 | –

The remaining lines, values ahead:

Ki (human GCGR) [nM] | Ki [1] [nM] | SMILES
510 | 187 | O=C(O)CCNC(=O)c1ccc(-c2ccccc2CNc2ccc(-c3ccc(Cl)cc3)cc2)cn1 [Compound 2, 3-(5-(2-(((4′-chloro-[1,1′-biphenyl]-4-yl)amino)methyl)phenyl)picolinamido)propanoic acid]
> 10400 | > 5400 | CC(C)(C)c1ccc(-c2ccc(NCc3ccccc3-c3ccc(C(=O)NCCC(=O)O)nc3)cc2)cc1 [Compound 3, 3-(5-(2-(((4′-(tert-butyl)-[1,1′-biphenyl]-4-yl)amino)methyl)phenyl)picolinamido)propanoic acid]
181 | 67.1 | O=C(O)CCNC(=O)c1ccc(-c2ccc(Cl)cc2CNc2ccc(-c3ccc(Cl)cc3Cl)cc2)cn1 [Compound 5, 3-(5-(4-chloro-2-(((2′,4′-dichloro-[1,1′-biphenyl]-4-yl)amino)methyl)phenyl)picolinamido)propanoic acid]
50.5 | 40.1 | O=C(O)CCNC(=O)c1ccc(-c2cc(Cl)ccc2CNc2ccc(-c3ccc(Cl)cc3)cc2)cn1 [Compound 6, 3-(5-(5-chloro-2-(((4′-chloro-[1,1′-biphenyl]-4-yl)amino)methyl)phenyl)picolinamido)propanoic acid]
44.8 | 22.4 | O=C(O)CCNC(=O)c1ccc(-c2cc(Cl)ccc2CNc2ccc(-c3ccc(Cl)cc3Cl)cc2)cn1 [Compound 7, 3-(5-(5-chloro-2-(((2′,4′-dichloro-[1,1′-biphenyl]-4-yl)amino)methyl)phenyl)picolinamido)propanoic acid]
70 | – | O=C(O)CCNC(=O)c1ccc(-c2cc(C(F)(F)F)ccc2CNc2ccc(-c3ccc(C(F)(F)F)cc3)c(C(F)(F)F)c2)cn1 [Compound 127, 3-(5-(2-(((2,4′-bis(trifluoromethyl)-[1,1′-biphenyl]-4-yl)amino)methyl)-5-(trifluoromethyl)phenyl)picolinamido)propanoic acid]
45.8 | – | O=C(O)CCNC(=O)c1ccc(-c2cc(C(F)(F)F)ccc2CNc2ccc(-c3ccc(C(F)(F)F)cc3Cl)c(C(F)(F)F)c2)cn1 [Compound 128, 3-(5-(2-(((2′-chloro-2,4′-bis(trifluoromethyl)-[1,1′-biphenyl]-4-yl)amino)methyl)-5-(trifluoromethyl)phenyl)picolinamido)propanoic acid]
61.2 | – | O=C(O)CCNC(=O)c1ccc(-c2cc(C(F)(F)F)cc(O)c2CNc2ccc(-c3ccc(Cl)cc3)c(Cl)c2)cn1 [Compound 164, 3-(5-(2-(((2,4′-dichloro-[1,1′-biphenyl]-4-yl)amino)methyl)-3-hydroxy-5-(trifluoromethyl)phenyl)picolinamido)propanoic acid]
